Results from patent US12509460B2 (Skyhawk Therapeutics, Inc., priority 2019, dated 2025).

Key:
[1] = tested on: mHTT protein in GM04724 (CAG 70/20) Huntington's disease patient lymphoblast cells; experiment: mHTT protein assay, 2B7-MW1 assay via Mesoscale Discovery (MSD); format: cell-based, human; details: GM04724 Huntington's disease patient lymphoblasts
Procedure, shortened: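 Patient lymphoblasts treated 48 h with compound from 10 μM to 0.6 nM. mHTT quantified by MSD 2B7-MW1 immunoassay, whose signal depends on polyQ expansion and HTT size. Viability measured on a replicate plate by CellTiter Glo.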

[2] = tested on: SMN FL and SMN Δ7 in spinal muscular atrophy (SMA) patient fibroblasts (GM03813, Coriell); experiment: Quantitative splicing assay (SMN), qPCR; format: cell-based, human; details: Homo sapiens, Fibroblast, 24 h, SMA patient fibroblasts GM03813, 24 h, qPCR; read-out: SMN2 Splicing FL EC50
Description: Spinal muscular atrophy (SMA) patient fibroblasts (GM03813, Coriell) are plated in 96-well plates at 50,000 cells/well. […] Treated cells are lysed and cDNA synthesized using the Fast Advanced Cells-to-Ct kit (Thermofisher A35378) according to the manufacturer's instructions. 2 μL of each cDNA are used in qPCR reactions. […] Reactions are run in a Quant Studio 6 qPCR instrument with default settings.

[3] = Quantitative splicing assay (HTT), qPCR; format: cell-based, human; details: Homo sapiens, GM04724, 24 h, GM04724 lymphoblasts, qPCR, read-out: HTT Splicing: E49-50 EC50
Procedure, shortened: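 Patient lymphoblasts (50,000 cells/well) dosed immediately after plating for 24 h at 2.5 uM to 0.15 nM in 0.1% DMSO. Lysed, cDNA made directly from cells, and inclusion of the intron 49 cryptic exon quantified by TaqMan qPCR.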

[4] = tested on: MDR1-MDCK cell monolayers; experiment: Blood-brain-barrier (BBB) penetration potential via MDCK-MDR1 permeability assay; details: for MDCK-MDR1: % Recov A-B: A-B direction; for MDCK-MDR1: % Recov B-A: B-A direction
MDR1 (P-gp) = experiment: as above; details: dog; for Papp A→B at 120 min, 5 μM: MDCK-MDR1, pH 7.4, MDCK-MDR1: Papp A-B, A-B direction; for Papp B→A at 120 min, 5 μM: MDCK-MDR1, pH 7.4, MDCK-MDR1: Papp B-A, B-A direction
MDR1 = experiment: as above; details: dog, MDCK-MDR1, pH 7.4, MDCK-MDR1: Efflux, efflux ratio
[5] = tested on: SMN protein in spinal muscular atrophy (SMA) patient fibroblasts (GM03813, Coriell); experiment: SMN protein assay, Mesoscale Discovery (MSD); format: cell-based, human; details: SMA patient fibroblasts GM03813, 48 hours, MSD; read-out: SMN2 protein EC50
Procedure, shortened: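 SMA patient fibroblasts (GM03813) seeded at 7000 cells/well and exposed to compound at 2.5 μM to 0.6 nM for 48 hours. Lysates assayed for SMN by MSD immunoassay, with absolute SMN amount calculated from a per-plate SMN standard curve (1 μg/ml to 19.5 pg/ml).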

Row | Structure (SMILES) | EC50 [1] | EC50 [2] | EC50 [3] | MDCK-MDR1: % Recov A-B [4] | MDCK-MDR1: % Recov B-A [4] | Papp A→B at 120 min, 5 μM (MDR1 (P-gp)) | Papp B→A at 120 min, 5 μM (MDR1 (P-gp)) | efflux ratio at 120 min, 5 μM (MDR1) | EC50 [5]
1 | CN(c1ccc(-c2cc(F)c(-c3ccoc(=O)c3)cc2O)nn1)[C@H]1C[C@@H]2CC[C@@H](N2)[C@H]1F [Compound 17B, 4-(2-fluoro-4-(6-(((1R,2R,3S,5S)-2-fluoro-8-azabicyclo[3.2.1]octan-3-yl)(methyl)amino)pyridazin-3-yl)-5-hydroxyphenyl)-2H-pyran-2-one] | 16 to 50 nM | 51 to 100 nM | 16 to 50 nM | 62% | 79% | 1.91 ×10⁻⁶ cm/s | 36.8 ×10⁻⁶ cm/s | 19 | 16 to 50 nM
2 | CCc1cn(-c2ccc(-c3ccc(N(C)[C@@H]4C[C@H]5CC(F)(F)[C@@H](C4)N5)nn3)c(O)c2)cn1 [Compound 18A, 2-(6-(((1S,3R,5R)-6,6-difluoro-8-azabicyclo[3.2.1]octan-3-yl)(methyl)amino)pyridazin-3-yl)-5-(4-ethyl-1H-imidazol-1-yl)phenol] | 51 to 100 nM | 16 to 50 nM | 16 to 50 nM | 56% | 71% | 7 ×10⁻⁶ cm/s | 40.7 ×10⁻⁶ cm/s | 6 | 0.01 to 15 nM
3 | CN(c1ccc(-c2ccc(-c3ccccn3)cc2O)nn1)[C@H]1C[C@@H]2CCC[C@@H](N2)[C@H]1F [Compound 23B, 2-(6-(((1R,2R,3S,5S)-2-fluoro-9-azabicyclo[3.3.1]nonan-3-yl)(methyl)amino)pyridazin-3-yl)-5-(pyridin-2-yl)phenol] | 16 to 50 nM | 16 to 50 nM | 16 to 50 nM | 68% | 98% | 3.17 ×10⁻⁶ cm/s | 48.2 ×10⁻⁶ cm/s | 15 | 0.01 to 15 nM
4 | CN(c1ccc(-c2ccc(-c3cnccn3)cc2O)nn1)[C@@H]1C[C@H]2CCC[C@H](N2)[C@@H]1F [Compound 24A, 2-(6-(((1S,2S,3R,5R)-2-fluoro-9-azabicyclo[3.3.1]nonan-3-yl)(methyl)amino)pyridazin-3-yl)-5-(pyrazin-2-yl)phenol] | 51 to 100 nM | 101 to 500 nM | 51 to 100 nM | 79% | 90% | 4.73 ×10⁻⁶ cm/s | 61.3 ×10⁻⁶ cm/s | 13 | 0.01 to 15 nM
5 | CN(c1ccc(-c2ccc(-c3cnccn3)cc2O)nn1)[C@H]1C[C@@H]2CCC[C@@H](N2)[C@H]1F [Compound 24B, 2-(6-(((1R,2R,3S,5S)-2-fluoro-9-azabicyclo[3.3.1]nonan-3-yl)(methyl)amino)pyridazin-3-yl)-5-(pyrazin-2-yl)phenol] | 0.01 to 15 nM | 0.01 to 15 nM | 0.01 to 15 nM | 73% | 91% | 5.99 ×10⁻⁶ cm/s | 33.8 ×10⁻⁶ cm/s | 6 | 0.01 to 15 nM
6 | Cc1cnc(-c2ccc(-c3ccc(N(C)[C@H]4C[C@@H]5CCC[C@@H](N5)[C@H]4F)nn3)c(O)c2)cn1 [Compound 26B, 2-(6-(((1R,2R,3S,5S)-2-fluoro-9-azabicyclo[3.3.1]nonan-3-yl)(methyl)amino)pyridazin-3-yl)-5-(5-methylpyrazin-2-yl)phenol] | 0.01 to 15 nM | 51 to 100 nM | 51 to 100 nM | 60% | 81% | 2.76 ×10⁻⁶ cm/s | 45.1 ×10⁻⁶ cm/s | 16 | 0.01 to 15 nM
7 | Cc1ccc(-c2ccc(-c3ccc(N(C)[C@H]4C[C@@H]5CCC[C@@H](N5)[C@H]4F)nn3)c(O)c2)nn1 [Compound 27B, 2-(6-(((1R,2R,3S,5S)-2-fluoro-9-azabicyclo[3.3.1]nonan-3-yl)(methyl)amino)pyridazin-3-yl)-5-(6-methylpyridazin-3-yl)phenol] | 0.01 to 15 nM | 0.01 to 15 nM | 16 to 50 nM | 98% | 115% | 1.13 ×10⁻⁶ cm/s | 43.5 ×10⁻⁶ cm/s | 38 | 0.01 to 15 nM
8 | CN(c1ccc(-c2ccc(-c3cnc(C#N)cn3)cc2O)nn1)[C@H]1C[C@@H]2CCC[C@@H](N2)[C@H]1F [Compound 28B, 5-(4-(6-(((1R,2R,3S,5S)-2-fluoro-9-azabicyclo[3.3.1]nonan-3-yl)(methyl)amino)pyridazin-3-yl)-3-hydroxyphenyl) pyrazine-2-carbonitrile] | 16 to 50 nM | 0.01 to 15 nM | 0.01 to 15 nM | 36% | 70% | 1.11 ×10⁻⁶ cm/s | 38.9 ×10⁻⁶ cm/s | 35 | 0.01 to 15 nM
9 | COc1cnc(-c2ccc(-c3ccc(N(C)[C@@H]4C[C@H]5CCC[C@H](N5)[C@@H]4F)nn3)c(O)c2)cn1 [Compound 29A, 2-(6-(((1S,2S,3R,5R)-2-fluoro-9-azabicyclo[3.3.1]nonan-3-yl)(methyl)amino)pyridazin-3-yl)-5-(5-methoxypyrazin-2-yl)phenol] | 16 to 50 nM | 501 to 10000 nM | 16 to 50 nM | 26% | 60% | 1.85 ×10⁻⁶ cm/s | 12.6 ×10⁻⁶ cm/s | 7 | 0.01 to 15 nM
10 | COc1cnc(-c2ccc(-c3ccc(N(C)[C@H]4C[C@@H]5CCC[C@@H](N5)[C@H]4F)nn3)c(O)c2)cn1 [Compound 29B, 2-(6-(((1R,2R,3S,5S)-2-fluoro-9-azabicyclo[3.3.1]nonan-3-yl)(methyl)amino)pyridazin-3-yl)-5-(5-methoxypyrazin-2-yl)phenol] | 0.01 to 15 nM | 501 to 10000 nM | 16 to 50 nM | 21% | 48% | 1.54 ×10⁻⁶ cm/s | 5.63 ×10⁻⁶ cm/s | 4 | 0.01 to 15 nM
11 | CN(c1ccc(-c2ccc(C3=CCCC3)cc2O)nn1)[C@H]1C[C@@H]2CC[C@@H](N2)[C@H]1F [Compound 34B, 5-(cyclopent-1-en-1-yl)-2-(6-(((1R,2R,3S,5S)-2-fluoro-8-azabicyclo[3.2.1]octan-3-yl)(methyl)amino)pyridazin-3-yl)phenol] | 51 to 100 nM | 16 to 50 nM | 51 to 100 nM | 12% | 48% | 1.02 ×10⁻⁶ cm/s | 2.81 ×10⁻⁶ cm/s | 3 | 16 to 50 nM
12 | CN(c1ccc(-c2ccc(C#N)cc2O)nn1)[C@@H]1C[C@H]2CCC[C@H](N2)[C@@H]1F [Compound 39A, 4-(6-(((1S,2S,3R,5R)-2-fluoro-9-azabicyclo[3.3.1]nonan-3-yl)(methyl)amino)pyridazin-3-yl)-3-hydroxybenzonitrile] | 16 to 50 nM | 16 to 50 nM | 16 to 50 nM | 83% | 76% | 8.1 ×10⁻⁶ cm/s | 40.5 ×10⁻⁶ cm/s | 5 | 0.01 to 15 nM
13 | CN(c1ccc(-c2cc3cccnc3cc2O)nn1)[C@@H]1C[C@H]2CCC[C@H](N2)[C@@H]1F [Compound 41A, 6-(6-(((1S,2S,3R,5R)-2-fluoro-9-azabicyclo[3.3.1]nonan-3-yl)(methyl)amino)pyridazin-3-yl)quinolin-7-ol] | 0.01 to 15 nM | 16 to 50 nM | 51 to 100 nM | 64% | 98% | 2 ×10⁻⁶ cm/s | 48.1 ×10⁻⁶ cm/s | 24 | 0.01 to 15 nM
14 | CN(c1ccc(-c2cc3cccnc3cc2O)nn1)[C@H]1C[C@@H]2CCC[C@@H](N2)[C@H]1F [Compound 41B, 6-(6-(((1R,2R,3S,5S)-2-fluoro-9-azabicyclo[3.3.1]nonan-3-yl)(methyl)amino)pyridazin-3-yl)quinolin-7-ol] | 0.01 to 15 nM | 16 to 50 nM | 16 to 50 nM | 60% | 95% | 2.57 ×10⁻⁶ cm/s | 36.7 ×10⁻⁶ cm/s | 14 | 0.01 to 15 nM
